Several values for one entry are separate records, joined by “and”; a condition that tells them apart may be missing. Equal values may be shown once. Where a name gives a salt, the structure may show the parent alone.
Experiments:
[1] = WST-1 cytotoxicity test, MRC-5; assay type: cell-based; settings: human, MRC-5 cells, 48 h, WST-1, mean ± SD of three experiments, read-out: relative viability (%) compared to untreated control; for viability at 48 h, 10 µM: MRC-5, 10 µM; for viability at 48 h, 100 µM: MRC-5, 100 µM
Experimental: (§1) In this study, the cytotoxic effects of nine new compounds (2, 3, 4, 5, 6, 7, 8, 9, 10) were tested on 10 human cell lines (nine cancer and one non-cancer cell line). The cell lines were treated with each compound at concentrations of 10 µM and 100 µM for 48 h. The proliferation capacity of the treated cells was determined by WST-1 test and compared against the proliferation rate of the untreated control cells (100%).
(§2) The cell lines Jurkat, MOLT-4, A2780, A549, HT-29, PANC-1, HeLa, MCF-7, SAOS-2, and MRC-5 (all purchased from Sigma Aldrich, Czech Republic) were included in this study. All cell lines were maintained according to the provider’s guidelines, and plated and treated in 96-well plates (500 to 30 × 10^3 cells per well). The tested compounds 2, 3, 4, 5, 6, 7, 8, 9, and 10 were dissolved in 0.1% DMSO and kept in 10 mM stock solutions. Before use, the stock solution was diluted in culture media at ratios of 1:100 and 1:1000. The studied cell lines were treated with the compounds 2, 3, 4, 5, 6, 7, 8, 9, and 10 at concentrations of 10 and 100 µM for 48 h. Control cells were tested in culture media with and without DMSO (0.1%). The cells were also treated with 1 µM doxorubicin as a cytotoxicity control.
(§3) The WST-1 (2-(4-iodophenyl)-3-(4-nitrophenyl)-5-(2,4-disulfophenyl)-2H-tetrazolium, monosodium salt) test (Roche, Mannheim, Germany) was used according to the manufacturer’s protocol to determine cell viability in all 10 cell lines 48 h after treatment with the tested compounds. The cells were analyzed in a Tecan Infinite M200 spectrometer (Tecan Group, Männedorf, Switzerland) at 440 nm.

[2] = WST-1 cytotoxicity test, HT-29; assay type: cell-based; settings: human, HT-29 cells, 48 h, WST-1, mean ± SD of three experiments, read-out: relative viability (%) compared to untreated control; for viability at 48 h, 10 µM: HT-29, 10 µM; for viability at 48 h, 100 µM: HT-29, 100 µM
Experimental: as §1, §2, §3

BALB/c mice = experiment: Safe use evaluation in vivo (MTD, symptoms, blood biochemistry, histopathology); parameters: key to piloerection / ataxia / prostration / tremor / excitation / saber-like tail / stooping / hyper/hypoventilation / drop of eyelids / lacrimation / convulsion: + (mild); ++ (moderate); +++ (severe); settings: for ALP / ALT / AST / Amylase / Creatinine / Glucose / Urea: plasma 48 h after MTD i.p.
Description: Mild to moderate signs of intoxication could be observed once the MTD (maximum tolerated dose) was reached. In vivo, MTD is described as the highest dose of a given compound that can be administered before showing signs of toxicity (based on the same dose regimen or series) and whose excess would be expected to be fatal, yielding unreliable results. Therefore, a staged approach (including core and intermediate dose levels) has become a suitable strategy in this regard.
The symptoms described in Tables S1 (in Supplementary Materials) and S2 (in Supplementary Materials) diminished spontaneously within 2 h. After observing these symptoms, MTD thresholds were set at 100, 200, 100, 200, 2000, and 650 mg/kg for compounds 4, 5, 6, 7, 8, and 10, respectively. Animals receiving MTD were further examined by necropsy 48 h after administration. Plasma (reflecting biochemical changes in blood), intestine with mesentery (site of administration), and liver and kidney (elimination organs) were collected to evaluate the toxic potential of the tested compounds. For evaluation of the impact of the compounds on organ function, we performed blood biochemistry test 48 h after administration. The test focused on seven important indicators: glucose and amylase for normal function of pancreas, alanine aminotransferase (ALT), aspartate aminotransferase (AST), and alkaline phosphatase (ALP) for the normal function of liver, and urea and creatinine for the normal function of kidneys. […] According to Thoolen et al., focal necrosis can be occasionally seen in untreated rodents and therefore is not pathognomonic of hepatotoxicity, which is consistent with our findings.
Both male and female BALB/c mice (Velaz s r.o., Prague, Czech Republic) with an average weight of 21 ± 0.8 g and 21 ± 0.8 g, respectively, were selected for the safe use evaluation in vivo. The mice were housed in environmentally controlled breeding units (Faculty of Military Health Sciences vivarium; temperature 21 ± 1 °C, 12/12 h light/dark cycle) with access to food (Cerea corp., Pardubice, Czech Republic) and water ad libitum. The acclimatization period of the mice was at least 10 days before each experiment. All experimental procedures and protocols were reviewed and approved by the Ethics Committee of the Faculty of Military Health Sciences in Hradec Kralove, University of Defence in Brno. Compounds 2, 3, 4, 5, 6, 7, 8, 9, and 10 were dissolved in physiological saline solution (B. Braun Melsungen AG, Melsungen, Germany) and injected intraperitoneally (i.p.) into the corresponding mouse groups, which were composed of two males and two females. Several doses were administered to determine the maximum tolerated dose (MTD), which was assessed by close observation for signs of toxicity within the first two hours after administration of the compounds, and then regularly over the following 48 h. The observed symptoms were registered according to the laboratory Animal Science Association UK guidelines (for a detailed description, see [36]. After 48 h, the surviving animals were euthanized with CO2 and evaluated by basic macroscopic necropsy. Venous blood was collected into heparinized tubes (Scanlab Systems, Prague, Czech Republic) and the plasma was separated in a U-320R centrifuge (Boeco, Hamburg, Germany) to further evaluate the toxic potential of the tested compounds. The concentrations of glucose, urea, and creatinine and the levels of alanine aminotransferase (ALT), aspartate aminotransferase (AST), alkaline phosphatase (ALP), and amylase were evaluated in a qualified biochemical laboratory of the University Hospital Hradec Kralove (Hradec Kralove, Czech Republic). Additionally, intestine, liver, and kidney samples were collected for histopathologic examination. […]

A549 cells = experiment: MTT assay, IC50 and MTC; settings: for IC50 fold higher than that for compound 2 / MTC (maximum tolerated concentration): A549 cells, MTT; for MTC (maximum tolerated concentration): 24 h of treatment; for IC50: Homo sapiens, A549, 24 h, read-out: IC50 ± SEM
Experimental: In further experiments, MTT (3-(4,5-di-methylthiazol-2-yl)-2,5-diphenyltetrazolium bromide) assay was employed to evaluate the toxicological indexes of the newly synthesized compounds, including IC50 (half-maximal inhibitory concentration) and MTC (maximum tolerated concentration).
IC50 and MTC were determined through MTT assays. The MTT assay was performed according to [35]. In brief, the A549 cell line was plated in 96-well plates (100 µL, 9 × 10^3 cells per well) and incubated overnight. The tested compounds were prepared in phosphate buffer saline (PBS; Sigma–Aldrich) and serially diluted in DMEM (Dulbecco’s Modified Eagle Medium). An untreated control was included as a viability standard in each plate. After 24 h of treatment, the viability of A549 cells was measured at 570 nm. All experiments were performed in triplicate. The GraphPad Prism statistics software v5.04 (GraphPad Software Inc., San Diego, CA, USA) was used to calculate the IC50 values for parameter nonlinear regression. Values are expressed as mean ± SEM.

[3] = female BALB/c mice, animals 1 and 2
[4] = female mice, at MTD i.p., animals 1 and 2
[5] = male BALB/c mice, animals 1 and 2
[6] = male mice, at MTD i.p., animals 1 and 2

Compound	viability at 48 h, 10 µM [1]	viability at 48 h, 100 µM [1]	viability at 48 h, 10 µM [2]	viability at 48 h, 100 µM [2]	ALP (BALB/c mice; [3])	ALT (BALB/c mice; [3])	AST (BALB/c mice; [3])	Amylase (BALB/c mice; [3])	Glucose (BALB/c mice; [3])	Urea (BALB/c mice; [3])	ALP (BALB/c mice; [5])	ALT (BALB/c mice; [5])	AST (BALB/c mice; [5])	Amylase (BALB/c mice; [5])	Creatinine (BALB/c mice; [5])	Glucose (BALB/c mice; [5])	Urea (BALB/c mice; [5])	IC50 fold higher than that for compound 2 (A549 cells)	MTC (maximum tolerated concentration) (A549 cells)	IC50 (A549 cells)	further results
OCCN1CCN(CC(O)CN2CCN(CCO)CC2)CC1 [Compound 8, 1.3-bis [4-(2-hydroxyethyl)piperazin-1-yl)propan-2-ol tetrahydrochloride]	95 ± 7%	119 ± 16%	101 ± 1%	154 ± 11%	121 U/L and 81 U/L	20 U/L and 23 U/L	78 U/L and 67 U/L	1798 U/L and 2455 U/L	171 mg/dL and 210 mg/dL	35 mg/dL and 40 mg/dL	71 U/L and 82 U/L	26 U/L and 22 U/L	65 U/L and 56 U/L	2674 U/L and 2327 U/L	57 µg/dL and 56 µg/dL	202 mg/dL and 249 mg/dL	41 mg/dL and 37 mg/dL	625 fold	6.25 mM	> 25000 µM	Creatinine (BALB/c mice; [3]): 79 µg/dL; excitation (BALB/c mice; [4]): +; tremor (BALB/c mice; [4]): +; excitation (BALB/c mice; [6]): +; tremor (BALB/c mice; [6]): +; weight at 24 h (%) (BALB/c mice; [6]): -3.8%; weight at 48 h (%) (BALB/c mice; [6]): -2.9%
Cl.Cl.Cl.OCCN1CCN(CCCNc2cccc3ccccc23)CC1 [Compound 6, 2-(4-(3-(naphthalen-1-ylamino)propyl)piperazin-1-yl)ethanol trihydrochloride]	91 ± 4%	94 ± 2%	86 ± 4%	97 ± 4%	86 U/L and 95 U/L	29 U/L and 27 U/L	53 U/L and 50 U/L	2922 U/L and 2835 U/L	199 mg/dL and 212 mg/dL	65 mg/dL and 55 mg/dL	38 U/L and 36 U/L	28 U/L and 25 U/L	64 U/L and 62 U/L	2124 U/L and 2086 U/L	45 µg/dL and 23 µg/dL	130 mg/dL and 177 mg/dL	42 mg/dL and 35 mg/dL	11.3 fold	0.02 mM	450 ± 10 µM	Creatinine (BALB/c mice; [3]): 22 µg/dL and 34 µg/dL; ataxia (BALB/c mice; [4]): ++; drop of eyelids (BALB/c mice; [4]): +; hyper/hypoventilation (BALB/c mice; [4]): ++; prostration (BALB/c mice; [4]): +; stooping (BALB/c mice; [4]): ++; ataxia (BALB/c mice; [6]): +; drop of eyelids (BALB/c mice; [6]): +; hyper/hypoventilation (BALB/c mice; [6]): ++; piloerection (BALB/c mice; [6]): +; prostration (BALB/c mice; [6]): +; stooping (BALB/c mice; [6]): ++; tremor (BALB/c mice; [6]): +; weight at 48 h (%) (BALB/c mice; [6]): -2.3% and -3.0%
Cl.Cl.Cl.OCCN1CCN(CCCNc2ccccc2)CC1 [Compound 5, 2-(4-(3-(phenylamino)propyl)piperazin-1-yl)ethanol trihydrochloride]	98 ± 7%	102 ± 8%	91 ± 2%	109 ± 2%	88 U/L and 80 U/L	29 U/L and 22 U/L	65 U/L and 44 U/L	2531 U/L and 2489 U/L	187 mg/dL and 192 mg/dL	65 mg/dL and 58 mg/dL	37 U/L and 38 U/L	28 U/L and 29 U/L	58 U/L and 59 U/L	1757 U/L and 2008 U/L	23 µg/dL and 21 µg/dL	185 mg/dL and 175 mg/dL	31 mg/dL and 33 mg/dL	33.8 fold	0.05 mM	1350 ± 120 µM	ataxia (BALB/c mice; [4]): +; drop of eyelids (BALB/c mice; [4]): +; hyper/hypoventilation (BALB/c mice; [4]): ++; tremor (BALB/c mice; [4]): +; ataxia (BALB/c mice; [6]): ++ and +; drop of eyelids (BALB/c mice; [6]): +; hyper/hypoventilation (BALB/c mice; [6]): ++; lacrimation (BALB/c mice; [6]): +; prostration (BALB/c mice; [6]): ++; saber-like tail (BALB/c mice; [6]): +; tremor (BALB/c mice; [6]): ++
Cl.Cl.OC(CNc1ccccc1)CNc1ccccc1 [Compound 9, 1,3-bis(phenylamino)propan-2-ol dihydrochloride]	102 ± 8%	120 ± 16%	102 ± 5%	148 ± 2%	–	–	–	–	–	–	–	–	–	–	–	–	–	6.0 fold	0.09 mM	240 ± 10 µM	–
Cc1cc(OCC(O)CN2CCN(CCO)CC2)ccc1Cl.Cl.Cl (stereo not drawn) [Compound 4, 1-(4-chloro-3-methylphenoxy)-3-(4-(2-hydroxyethyl)piperazin-1-yl)propan-2-ol dihydrochloride]	97 ± 8%	93 ± 5%	100 ± 2%	83 ± 4%	83 U/L and 76 U/L	28 U/L	93 U/L and 61 U/L	2632 U/L and 2216 U/L	237 mg/dL and 228 mg/dL	65 mg/dL and 38 mg/dL	77 U/L and 63 U/L	41 U/L and 43 U/L	124 U/L and 121 U/L	1905 U/L and 2464 U/L	79 µg/dL and 45 µg/dL	226 mg/dL and 227 mg/dL	39 mg/dL and 53 mg/dL	16.0 fold	0.05 mM	640 ± 30 µM	histopathological change: focal necrosis (BALB/c mice; at MTD i.p., necropsy 48 h after administration, one animal each): one small focus; Creatinine (BALB/c mice; [3]): 78 µg/dL and 79 µg/dL; drop of eyelids (BALB/c mice; [4]): +; prostration (BALB/c mice; [4]): +; weight at 24 h (%) (BALB/c mice; [4]): -5.7% and -4.1%; weight at 48 h (%) (BALB/c mice; [4]): -7.3% and -7.9%; hyper/hypoventilation (BALB/c mice; [6]): +; prostration (BALB/c mice; [6]): +; weight at 24 h (%) (BALB/c mice; [6]): -2.6% and -3.0%; weight at 48 h (%) (BALB/c mice; [6]): -4.6% and -3.7%

From article PMC7038073, “Substituted Piperazines as Novel Potential Radioprotective Agents” (Molecules, 2020)
